What was measured:
p38-delta = target: T1, p38-delta (Homo sapiens, UniProt O15264); experiment: KINOMEscan 1 μM, p38-delta; format: binding; conditions: 1000 nM; Entrez MAPK13; read-out: Percent Control
T1 construct: purchased Eurofins DiscoverX KINOMEscan
Text: (§1) Supplement cells-12-00287-s001.zip/File S2. KinomeScan data for the CAMKK2 probe and negative control.xlsx, sheet "SGC-CAMKK2-1" | column: Percent Control

RIOK3 = target: T2, RIOK3 (Homo sapiens, UniProt O14730); experiment: KINOMEscan 1 μM, RIOK3; format: binding; conditions: 1000 nM; Entrez RIOK3; read-out: Percent Control
T2 construct: purchased Eurofins DiscoverX KINOMEscan
Text: as §1

PIM3 = target: T3, PIM3 (Homo sapiens, UniProt Q86V86); experiment: KINOMEscan 1 μM, PIM3; format: binding; conditions: 1000 nM; Entrez PIM3; read-out: Percent Control
T3 construct: purchased Eurofins DiscoverX KINOMEscan
Text: as §1

EGFR(S752-I759del) = target: T4, EGFR(S752-I759del) (Homo sapiens, UniProt P00533, DEL752-759); experiment: KINOMEscan 1 μM, EGFR(S752-I759del); format: binding; conditions: 1000 nM; Entrez EGFR; read-out: Percent Control
T4 construct: purchased Eurofins DiscoverX KINOMEscan
Text: as §1

FES = target: T5, FES (Homo sapiens, UniProt P07332); experiment: KINOMEscan 1 μM, FES; format: binding; conditions: 1000 nM; Entrez FES; read-out: Percent Control
T5 construct: purchased Eurofins DiscoverX KINOMEscan
Text: as §1

EGFR = target: T6, EGFR (Homo sapiens, UniProt P00533); experiment: KINOMEscan 1 μM, EGFR; format: binding; conditions: 1000 nM; Entrez EGFR; read-out: Percent Control
T6 construct: purchased Eurofins DiscoverX KINOMEscan
Text: as §1

CSNK1G3 = target: T7, CSNK1G3 (Homo sapiens, UniProt Q9Y6M4); experiment: KINOMEscan 1 μM, CSNK1G3; format: binding; conditions: 1000 nM; Entrez CSNK1G3; read-out: Percent Control
T7 construct: purchased Eurofins DiscoverX KINOMEscan
Text: as §1

[1] = target: T8, ABL1(H396P)-nonphosphorylated (Homo sapiens, UniProt P00519, H396P); experiment: KINOMEscan 1 μM, ABL1(H396P)-nonphosphorylated; format: binding; conditions: 1000 nM; Entrez ABL1; read-out: Percent Control
T8 construct: purchased Eurofins DiscoverX KINOMEscan
Text: as §1

AKT1 = target: T9, AKT1 (Homo sapiens, UniProt P31749); experiment: KINOMEscan 1 μM, AKT1; format: binding; conditions: 1000 nM; Entrez AKT1; read-out: Percent Control
T9 construct: purchased Eurofins DiscoverX KINOMEscan
Text: as §1

AURKA = target: T10, AURKA (Homo sapiens, UniProt O14965); experiment: KINOMEscan 1 μM, AURKA; format: binding; conditions: 1000 nM; Entrez AURKA; read-out: Percent Control
T10 construct: purchased Eurofins DiscoverX KINOMEscan
Text: as §1

BMX = target: T11, BMX (Homo sapiens, UniProt P51813); experiment: KINOMEscan 1 μM, BMX; format: binding; conditions: 1000 nM; Entrez BMX; read-out: Percent Control
T11 construct: purchased Eurofins DiscoverX KINOMEscan
Text: as §1

GRK4 = target: T12, GRK4 (Homo sapiens, UniProt P32298); experiment: KINOMEscan 1 μM, GRK4; format: binding; conditions: 1000 nM; Entrez GRK4; read-out: Percent Control
T12 construct: purchased Eurofins DiscoverX KINOMEscan
Text: as §1

LZK = target: T13, LZK (Homo sapiens, UniProt O43283); experiment: KINOMEscan 1 μM, LZK; format: binding; conditions: 1000 nM; Entrez MAP3K13; read-out: Percent Control
T13 construct: purchased Eurofins DiscoverX KINOMEscan
Text: as §1

MARK2 = target: T14, MARK2 (Homo sapiens, UniProt Q7KZI7); experiment: KINOMEscan 1 μM, MARK2; format: binding; conditions: 1000 nM; Entrez MARK2; read-out: Percent Control
T14 construct: purchased Eurofins DiscoverX KINOMEscan
Text: as §1

NEK2 = target: T15, NEK2 (Homo sapiens, UniProt P51955); experiment: KINOMEscan 1 μM, NEK2; format: binding; conditions: 1000 nM; Entrez NEK2; read-out: Percent Control
T15 construct: purchased Eurofins DiscoverX KINOMEscan
Text: as §1

PCTK2 = target: T16, PCTK2 (Homo sapiens, UniProt Q00537); experiment: DiscoverX KINOMEscan binding assay at 1 μM, PCTK2; conditions: PCTK2 (CDK17); Compound Concentration 1000 nM; read-out: Percent Control
T16 construct: purchased Eurofins DiscoverX KINOMEscan
Text: as §1

[2] = target: T17, RSK4(Kin.Dom.2-C-terminal) (Homo sapiens, UniProt Q9UK32); experiment: DiscoverX KINOMEscan binding assay at 1 μM, RSK4(Kin.Dom.2-C-terminal); conditions: RSK4(Kin.Dom.2-C-terminal) (RPS6KA6); Compound Concentration 1000 nM; read-out: Percent Control
T17 construct: RSK4(Kin.Dom.2-C-terminal); purchased Eurofins DiscoverX KINOMEscan
Text: as §1

TNNI3K = target: T18, TNNI3K (Homo sapiens, UniProt Q59H18); experiment: DiscoverX KINOMEscan binding assay at 1 μM, TNNI3K; conditions: Compound Concentration 1000 nM, read-out: Percent Control
T18 construct: purchased Eurofins DiscoverX KINOMEscan
Text: as §1

[3] = target: T19, TYK2(JH1domain-catalytic) (Homo sapiens, UniProt P29597); experiment: DiscoverX KINOMEscan binding assay at 1 μM, TYK2(JH1domain-catalytic); conditions: Compound Concentration 1000 nM, read-out: Percent Control
T19 construct: TYK2(JH1domain-catalytic); purchased Eurofins DiscoverX KINOMEscan
Text: as §1

HIPK3 = target: T20, HIPK3 (Homo sapiens, UniProt Q9H422); experiment: KINOMEscan at 1 μM, HIPK3; format: binding; conditions: 1000 nM, read-out: Percent Control
T20 construct: purchased Eurofins DiscoverX KINOMEscan
Text: (§2) Supplement cells-12-00287-s001.zip/File S2. KinomeScan data for the CAMKK2 probe and negative control.xlsx, sheet "SGC-CAMKK2-1N" | column: Percent Control

OSR1 = target: T21, OSR1 (Homo sapiens, UniProt O95747); experiment: KINOMEscan at 1 μM, OSR1; format: binding; conditions: 1000 nM, read-out: Percent Control
T21 construct: purchased Eurofins DiscoverX KINOMEscan
Text: as §2

[4] = target: T22, RSK2(Kin.Dom.2-C-terminal) (Homo sapiens, UniProt P51812); experiment: KINOMEscan at 1 μM, RSK2(Kin.Dom.2-C-terminal); format: binding; conditions: 1000 nM, read-out: Percent Control
T22 construct: RSK2(Kin.Dom.2-C-terminal); purchased Eurofins DiscoverX KINOMEscan
Text: as §2

CAMK2D = target: T23, CAMK2D (Homo sapiens, UniProt Q13557); experiment: KINOMEscan at 1 μM, CAMK2D; format: binding; conditions: 1000 nM, read-out: Percent Control
T23 construct: purchased Eurofins DiscoverX KINOMEscan
Text: as §2

PKNB(M.tuberculosis) = target: T24, PKNB(M.tuberculosis) (Mycobacterium tuberculosis, UniProt P9WI81); experiment: KINOMEscan at 1 μM, PKNB(M.tuberculosis); format: binding; conditions: 1000 nM, read-out: Percent Control
T24 construct: purchased Eurofins DiscoverX KINOMEscan
Text: as §2

ERK8 = target: T25, ERK8 (Homo sapiens, UniProt Q8TD08); experiment: KINOMEscan at 1 μM, ERK8; format: binding; conditions: 1000 nM, read-out: Percent Control
T25 construct: purchased Eurofins DiscoverX KINOMEscan
Text: as §2

PIK3C2B = target: T26, PIK3C2B (Homo sapiens, UniProt O00750); experiment: KINOMEscan at 1 μM, PIK3C2B; format: binding; conditions: 1000 nM, read-out: Percent Control
T26 construct: purchased Eurofins DiscoverX KINOMEscan
Text: as §2

EPHA3 = target: T27, EPHA3 (Homo sapiens, UniProt P29320); experiment: KINOMEscan at 1 μM, EPHA3; format: binding; conditions: 1000 nM, read-out: Percent Control
T27 construct: purchased Eurofins DiscoverX KINOMEscan
Text: as §2

WNK4 = target: T28, WNK4 (Homo sapiens, UniProt Q96J92); experiment: KINOMEscan at 1 μM, WNK4; format: binding; conditions: 1000 nM, read-out: Percent Control
T28 construct: purchased Eurofins DiscoverX KINOMEscan
Text: as §2

MINK = target: T29, MINK (Homo sapiens, UniProt Q8N4C8); experiment: KINOMEscan at 1 μM, MINK; format: binding; conditions: 1000 nM, read-out: Percent Control
T29 construct: purchased Eurofins DiscoverX KINOMEscan
Text: as §2

CHEK2 = target: T30, CHEK2 (Homo sapiens, UniProt O96017); experiment: KINOMEscan at 1 μM, CHEK2; format: binding; conditions: 1000 nM, read-out: Percent Control
T30 construct: purchased Eurofins DiscoverX KINOMEscan
Text: as §2

EPHA7 = target: T31, EPHA7 (Homo sapiens, UniProt Q15375); experiment: KINOMEscan binding assay at 1 μM, EPHA7; conditions: Compound Concentration 1000 nM; read-out: Percent Control
T31 construct: purchased Eurofins DiscoverX KINOMEscan
Text: as §2

ITK = target: T32, ITK (Homo sapiens, UniProt Q08881); experiment: KINOMEscan binding assay at 1 μM, ITK; conditions: Compound Concentration 1000 nM; read-out: Percent Control
T32 construct: purchased Eurofins DiscoverX KINOMEscan
Text: as §2

T12 sequence (P32298 whole entry): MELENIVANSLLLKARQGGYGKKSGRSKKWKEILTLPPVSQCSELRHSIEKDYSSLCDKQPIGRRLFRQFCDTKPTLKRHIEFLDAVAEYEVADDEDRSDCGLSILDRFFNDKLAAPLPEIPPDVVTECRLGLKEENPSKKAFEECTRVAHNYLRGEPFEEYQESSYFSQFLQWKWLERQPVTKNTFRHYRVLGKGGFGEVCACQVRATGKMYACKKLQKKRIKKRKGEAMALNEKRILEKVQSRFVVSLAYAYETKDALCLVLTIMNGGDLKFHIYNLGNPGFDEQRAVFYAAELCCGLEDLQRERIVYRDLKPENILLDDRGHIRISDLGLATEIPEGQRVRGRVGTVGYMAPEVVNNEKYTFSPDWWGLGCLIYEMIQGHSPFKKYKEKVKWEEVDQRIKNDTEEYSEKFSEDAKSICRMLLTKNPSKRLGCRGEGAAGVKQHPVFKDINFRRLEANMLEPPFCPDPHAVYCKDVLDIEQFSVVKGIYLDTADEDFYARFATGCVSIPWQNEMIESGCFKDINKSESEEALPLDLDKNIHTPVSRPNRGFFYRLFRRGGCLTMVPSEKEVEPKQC
T14 sequence (Q7KZI7 whole entry): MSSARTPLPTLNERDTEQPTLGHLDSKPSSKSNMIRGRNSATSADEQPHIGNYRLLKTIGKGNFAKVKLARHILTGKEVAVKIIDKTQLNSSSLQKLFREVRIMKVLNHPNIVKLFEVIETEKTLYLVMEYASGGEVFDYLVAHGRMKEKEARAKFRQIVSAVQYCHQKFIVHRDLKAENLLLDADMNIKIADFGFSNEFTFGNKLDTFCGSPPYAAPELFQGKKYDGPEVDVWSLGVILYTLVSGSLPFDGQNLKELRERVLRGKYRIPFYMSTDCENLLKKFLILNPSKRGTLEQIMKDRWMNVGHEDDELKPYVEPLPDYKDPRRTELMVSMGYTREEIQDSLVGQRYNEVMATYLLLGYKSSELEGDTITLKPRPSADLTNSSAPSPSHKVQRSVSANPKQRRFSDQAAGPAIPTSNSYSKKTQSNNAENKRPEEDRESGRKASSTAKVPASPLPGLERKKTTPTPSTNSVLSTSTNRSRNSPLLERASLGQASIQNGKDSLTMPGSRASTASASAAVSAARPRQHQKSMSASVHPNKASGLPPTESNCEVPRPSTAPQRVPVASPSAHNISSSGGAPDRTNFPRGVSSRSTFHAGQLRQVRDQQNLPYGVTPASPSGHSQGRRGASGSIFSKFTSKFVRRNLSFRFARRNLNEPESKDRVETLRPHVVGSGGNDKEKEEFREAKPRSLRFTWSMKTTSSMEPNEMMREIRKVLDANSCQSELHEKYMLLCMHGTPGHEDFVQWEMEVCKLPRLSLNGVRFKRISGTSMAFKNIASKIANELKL
T26 sequence (O00750 whole entry): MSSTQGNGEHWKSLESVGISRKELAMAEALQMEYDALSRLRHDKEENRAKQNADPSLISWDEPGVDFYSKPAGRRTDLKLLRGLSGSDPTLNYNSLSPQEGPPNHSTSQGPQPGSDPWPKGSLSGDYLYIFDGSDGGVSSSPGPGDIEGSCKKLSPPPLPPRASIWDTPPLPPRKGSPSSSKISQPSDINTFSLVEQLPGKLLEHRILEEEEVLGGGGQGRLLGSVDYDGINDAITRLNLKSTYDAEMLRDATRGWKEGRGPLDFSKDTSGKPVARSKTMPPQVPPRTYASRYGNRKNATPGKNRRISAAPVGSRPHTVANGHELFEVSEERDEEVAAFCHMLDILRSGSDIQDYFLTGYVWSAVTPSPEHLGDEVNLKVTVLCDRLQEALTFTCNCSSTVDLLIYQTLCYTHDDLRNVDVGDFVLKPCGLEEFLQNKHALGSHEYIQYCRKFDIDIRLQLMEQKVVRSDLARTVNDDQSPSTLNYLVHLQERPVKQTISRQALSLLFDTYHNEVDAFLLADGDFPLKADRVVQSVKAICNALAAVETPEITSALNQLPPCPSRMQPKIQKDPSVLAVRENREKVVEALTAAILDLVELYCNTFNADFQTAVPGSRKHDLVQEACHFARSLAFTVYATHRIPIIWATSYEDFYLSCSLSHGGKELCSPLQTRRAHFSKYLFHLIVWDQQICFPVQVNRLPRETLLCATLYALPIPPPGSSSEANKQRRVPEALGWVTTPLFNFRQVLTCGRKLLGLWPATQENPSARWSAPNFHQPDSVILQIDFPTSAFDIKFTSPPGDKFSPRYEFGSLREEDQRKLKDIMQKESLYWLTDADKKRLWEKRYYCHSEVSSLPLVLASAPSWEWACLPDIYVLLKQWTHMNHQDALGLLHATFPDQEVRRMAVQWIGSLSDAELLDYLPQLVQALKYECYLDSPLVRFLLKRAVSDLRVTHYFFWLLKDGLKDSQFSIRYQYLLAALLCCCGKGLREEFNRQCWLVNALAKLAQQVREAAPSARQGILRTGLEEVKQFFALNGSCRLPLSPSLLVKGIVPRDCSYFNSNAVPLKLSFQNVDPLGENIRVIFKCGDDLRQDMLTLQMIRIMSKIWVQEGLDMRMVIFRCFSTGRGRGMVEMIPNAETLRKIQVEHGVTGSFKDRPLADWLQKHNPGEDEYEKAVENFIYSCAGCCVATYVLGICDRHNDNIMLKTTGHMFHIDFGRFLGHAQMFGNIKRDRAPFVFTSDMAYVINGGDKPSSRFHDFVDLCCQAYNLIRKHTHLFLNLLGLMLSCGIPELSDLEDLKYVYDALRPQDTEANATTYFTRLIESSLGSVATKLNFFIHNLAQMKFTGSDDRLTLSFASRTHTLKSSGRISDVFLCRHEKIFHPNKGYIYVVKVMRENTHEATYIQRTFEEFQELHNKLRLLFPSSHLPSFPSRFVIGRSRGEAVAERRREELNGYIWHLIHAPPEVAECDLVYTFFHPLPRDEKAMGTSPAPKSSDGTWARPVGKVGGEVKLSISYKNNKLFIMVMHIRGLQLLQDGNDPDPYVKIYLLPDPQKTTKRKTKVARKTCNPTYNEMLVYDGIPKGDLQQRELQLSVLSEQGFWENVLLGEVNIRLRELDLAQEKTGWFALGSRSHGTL
T11 sequence (P51813 whole entry): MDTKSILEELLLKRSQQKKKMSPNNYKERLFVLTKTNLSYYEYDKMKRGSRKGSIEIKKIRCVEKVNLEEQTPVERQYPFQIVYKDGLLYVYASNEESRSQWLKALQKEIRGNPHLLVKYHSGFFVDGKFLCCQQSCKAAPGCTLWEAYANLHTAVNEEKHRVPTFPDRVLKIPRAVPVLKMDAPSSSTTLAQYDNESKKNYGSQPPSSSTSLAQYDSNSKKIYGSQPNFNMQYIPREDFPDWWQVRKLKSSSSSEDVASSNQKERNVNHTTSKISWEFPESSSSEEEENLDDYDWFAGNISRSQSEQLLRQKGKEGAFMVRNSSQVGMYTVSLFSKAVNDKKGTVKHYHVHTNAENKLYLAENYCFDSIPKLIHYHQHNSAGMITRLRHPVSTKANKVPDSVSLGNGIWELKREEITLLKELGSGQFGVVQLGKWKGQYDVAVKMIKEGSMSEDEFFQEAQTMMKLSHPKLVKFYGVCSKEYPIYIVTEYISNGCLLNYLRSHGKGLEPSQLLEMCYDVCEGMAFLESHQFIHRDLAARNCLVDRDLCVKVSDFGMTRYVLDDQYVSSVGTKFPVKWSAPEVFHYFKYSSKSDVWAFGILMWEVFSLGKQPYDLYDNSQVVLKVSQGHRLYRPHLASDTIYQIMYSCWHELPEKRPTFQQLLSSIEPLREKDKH
T17 sequence (Q9UK32 401-745 limits assumed): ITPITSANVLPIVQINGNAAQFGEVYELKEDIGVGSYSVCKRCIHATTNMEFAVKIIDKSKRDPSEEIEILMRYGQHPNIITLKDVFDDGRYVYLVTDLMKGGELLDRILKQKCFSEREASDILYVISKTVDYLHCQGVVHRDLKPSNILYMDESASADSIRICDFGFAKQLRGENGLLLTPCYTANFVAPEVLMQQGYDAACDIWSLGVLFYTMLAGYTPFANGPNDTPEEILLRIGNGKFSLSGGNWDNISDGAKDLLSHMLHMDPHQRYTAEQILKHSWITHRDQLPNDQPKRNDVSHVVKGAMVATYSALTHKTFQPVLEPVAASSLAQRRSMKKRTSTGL
T10 sequence (O14965 whole entry): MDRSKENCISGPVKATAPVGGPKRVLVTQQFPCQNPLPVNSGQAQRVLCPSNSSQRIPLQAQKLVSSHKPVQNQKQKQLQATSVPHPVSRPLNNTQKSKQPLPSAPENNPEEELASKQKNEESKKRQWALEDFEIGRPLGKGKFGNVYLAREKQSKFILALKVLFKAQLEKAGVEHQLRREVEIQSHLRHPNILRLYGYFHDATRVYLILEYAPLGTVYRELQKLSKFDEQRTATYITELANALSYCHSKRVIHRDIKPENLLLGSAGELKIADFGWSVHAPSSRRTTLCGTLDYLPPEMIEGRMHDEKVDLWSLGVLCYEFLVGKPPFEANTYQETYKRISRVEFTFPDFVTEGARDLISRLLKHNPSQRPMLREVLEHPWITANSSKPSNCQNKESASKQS
T1 sequence (O15264 whole entry): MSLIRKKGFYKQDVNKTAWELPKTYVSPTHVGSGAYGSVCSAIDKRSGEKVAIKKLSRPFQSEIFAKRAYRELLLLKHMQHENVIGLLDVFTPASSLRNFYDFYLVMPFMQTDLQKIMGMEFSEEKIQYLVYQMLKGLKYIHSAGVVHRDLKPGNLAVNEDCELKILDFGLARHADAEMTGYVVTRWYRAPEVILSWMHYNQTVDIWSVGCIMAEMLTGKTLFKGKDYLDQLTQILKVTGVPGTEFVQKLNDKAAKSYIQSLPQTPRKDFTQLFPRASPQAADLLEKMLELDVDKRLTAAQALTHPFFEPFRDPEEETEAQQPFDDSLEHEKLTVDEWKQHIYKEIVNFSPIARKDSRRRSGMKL

Cc1cccc(-c2cnc3occ(-c4ccc(C(=O)O)c(C5CCCC5)c4)c3c2)c1 [SGC-CAMKK2-1 (YL-36)]
remaining binding at 1 µM (p38-delta): 69% | remaining binding at 1 µM (RIOK3): 75% | remaining binding at 1 µM (PIM3): 77% | remaining binding at 1 µM (EGFR(S752-I759del)): 87% | remaining binding at 1 µM (FES): 88% | remaining binding at 1 µM (EGFR): 91% | remaining binding at 1 µM (CSNK1G3): 99% | remaining binding at 1 µM [1]: 100% | remaining binding at 1 µM (AKT1): 100% | remaining binding at 1 µM (AURKA): 100% | remaining binding at 1 µM (BMX): 100% | remaining binding at 1 µM (GRK4): 100% | remaining binding at 1 µM (LZK): 100% | remaining binding at 1 µM (MARK2): 100% | remaining binding at 1 µM (NEK2): 100% | remaining binding at 1 µM (PCTK2): 100% | remaining binding at 1 µM [2]: 100% | remaining binding at 1 µM (TNNI3K): 100% | remaining binding at 1 µM [3]: 100%

O=C(O)c1ccc(-c2coc3ncc(-c4ccccc4)cc23)cc1Cl [SGC-CAMKK2-1N (UNC-YL-83)]
remaining binding at 1 µM (HIPK3): 40% | remaining binding at 1 µM (OSR1): 64% | remaining binding at 1 µM [4]: 70% | remaining binding at 1 µM (CAMK2D): 77% | remaining binding at 1 µM (PKNB(M.tuberculosis)): 83% | remaining binding at 1 µM (ERK8): 86% | remaining binding at 1 µM (PIK3C2B): 91% | remaining binding at 1 µM (EPHA3): 92% | remaining binding at 1 µM (WNK4): 93% | remaining binding at 1 µM (MINK): 95% | remaining binding at 1 µM (CHEK2): 100% | remaining binding at 1 µM (EPHA7): 100% | remaining binding at 1 µM (ITK): 100%

From publication PMC9856672, “SGC-CAMKK2-1: A Chemical Probe for CAMKK2” (Cells, 2023)
